{"source": "paper PMC4807051", "about": "“Determinants of Cofactor Specificity for the Glucose-6-Phosphate Dehydrogenase from Escherichia coli: Simulation, Kinetics and Evolutionary Studies” (PLoS ONE, 2016)", "key": {"[1]": {"biological_target": "T1, EcG6PDH; glucose-6-phosphate dehydrogenase from Escherichia coli (Escherichia coli, UniProt P0AC53, R50A)", "T1 construct": "gene zwf; full length; N-terminal 6xHis tag cut by TEV protease (Gly-His left before Met1); plasmid pET-TEV-EcG6PDH from pETG6PDH", "experiment": "NAD(P)H formation at […] nm, Michaelis-Menten fit", "format": "biochemical", "conditions": "co-substrate NADP+ at 10 times its KM; 25°C"}, "[2]": {"biological_target": "T2, EcG6PDH; glucose-6-phosphate dehydrogenase from Escherichia coli (Escherichia coli, UniProt P0AC53, K18A)", "T2 construct": "gene zwf; full length; N-terminal 6xHis tag cut by TEV protease (Gly-His left before Met1); plasmid pET-TEV-EcG6PDH from pETG6PDH", "experiment": "NAD(P)H formation at […] nm, Michaelis-Menten fit", "format": "biochemical", "conditions": "co-substrate NADP+ at 10 times its KM; 25°C"}}}
{"smiles": "O=P(O)(O)OC[C@H]1OC(O)[C@H](O)[C@@H](O)[C@@H]1O", "note": "(some centres unmarked) [G6P]", "values": [{"measurement": "apparent KM", "setting": "[1]", "value": "we determined the effect of the mutations on the apparent kinetic parameters for G6P"}, {"measurement": "apparent KM", "setting": "[2]", "value": "we determined the effect of the mutations on the apparent kinetic parameters for G6P"}]}
